The source of these data is publication PMC4363291 (The Journal of investigative dermatology, 2014).

Holding throughout (assay): voltage-clamp of hemichannel currents in Xenopus oocytes
Holding throughout (type): cell-based

Test [1] has as its target connexin26 (Cx26) hemichannel (Homo sapiens, UniProt P29033, D50A).
In test [2] the target is connexin26 (Cx26) hemichannel (Homo sapiens, UniProt P29033, A40V).
Test [3] addresses connexin26 (Cx26) hemichannel (Homo sapiens, UniProt P29033, D50N).
In test [4] the target is T1, connexin26 (Cx26) hemichannel (Homo sapiens, UniProt P29033, G45E).
For test [5], the target named is T1, connexin26 (Cx26) hemichannel. The source holds these as a separate data set.

SMILES strings stand for the structures. Structures can show the parent of a compound that is named as a salt.

For the compound `O[C@@H](c1cc(C(F)(F)F)nc2c(C(F)(F)F)cccc12)[C@H]1CCCCN1` (relative stereo) [MFQ, [R*,S*]-[2,8-Bis-trifluoromethyl-quinolin-4-yl]-piperidin-2-yl-methanolhydrochloride], the figures for the “%” value in test [1], in test [2] and in test [3] were 50% or better suppression at 30µM, 50% or better suppression at 30µM and 69±15% reduction at 30µM, respectively. This compound also displayed an IC50 in test [4] of approximately 16 µM.

As for `OC(c1ccccn1)c1cc(C(F)(F)F)nc2c(C(F)(F)F)cccc12` (stereo not drawn) [QU026, [2,8-Bis-trifluoromethyl-quinolin-4-yl]-pyridin-2-yl-methanol], the “%” value in test [5] stood at 59±13% reduction at 30µM; in test [3], 73±11% reduction at 30µM.
